# Results as given in patent publication US20090053721A1, “VOLTAGE-GATED ION CHANNEL MUTANTS FOR USE IN IDENTIFYING ION CHANNEL MODULATING COMPOUNDS” (CARDIOME PHARMA CORP., priority 2007, published 2009).
# Where “and” joins values, the source holds several entries; their conditions need not be identical. Equal values may be shown once. Where a name gives a salt, the structure may show the parent alone.
# Columns and labels:
# [1] = molecular target: T1, Kv1.5 I502L mutant channel (Homo sapiens, UniProt P22460, I502L); assay: Whole-cell patch-clamp block of mutant Kv1.5 current in HEK293 cells; assay type: cell-based
# T1 construct: subcloned as a fragment back into full-length Kv1.5; expressed in transfected cells; host or cells: HEK293, transient transfection
# T1 sequence (P22460 whole entry I502L, the tested form may be a part): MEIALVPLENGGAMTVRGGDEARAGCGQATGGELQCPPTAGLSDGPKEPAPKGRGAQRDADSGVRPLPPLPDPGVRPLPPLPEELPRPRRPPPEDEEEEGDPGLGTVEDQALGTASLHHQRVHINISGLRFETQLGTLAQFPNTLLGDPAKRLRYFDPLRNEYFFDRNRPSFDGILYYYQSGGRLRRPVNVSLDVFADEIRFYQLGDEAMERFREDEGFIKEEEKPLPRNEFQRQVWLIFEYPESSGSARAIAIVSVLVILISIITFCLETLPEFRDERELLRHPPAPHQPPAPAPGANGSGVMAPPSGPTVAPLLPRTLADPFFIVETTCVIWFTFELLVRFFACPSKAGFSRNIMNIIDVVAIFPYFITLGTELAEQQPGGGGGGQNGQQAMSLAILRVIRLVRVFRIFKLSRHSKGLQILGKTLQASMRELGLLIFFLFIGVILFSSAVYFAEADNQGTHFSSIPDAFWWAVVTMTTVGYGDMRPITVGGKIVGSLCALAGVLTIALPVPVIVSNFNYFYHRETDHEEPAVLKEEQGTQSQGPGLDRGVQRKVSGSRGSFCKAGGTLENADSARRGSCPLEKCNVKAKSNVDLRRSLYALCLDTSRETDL
# Procedure: (§1) Stable lines of HEK293 cells expressing Kv1.5, or transient transfection of mutant Kv1.5 channels were used in all experiments. […] (Coralville, Iowa, USA), and mutants were generated using the Stratagene Quikchange kit (Stratagene, Calif., USA). […] This was added to the cells for overnight incubation after washing the media with 900 μl of MEM with 10% FBS. […] Media contained 10% bovine serum and 0.5 mg/ml geneticin for stable lines. On the day before recording, stably-expressing cells were washed with MEM, treated with trypsin/EGTA for one minute and plated on 25 mm^2 coverslips. All cell culture supplies were obtained from Invitrogen (Mississauga, ON, Canada). Control bath solution contained (in mM): 5 KCl, 135 NaCl, 2.8 sodium acetate, 1 MgCl2, 10 HEPES and 1 CaCl2, adjusted to pH 7.4 with NaOH. Patch pipettes contained (in mM): 130 KCl, 5 EGTA, 1 MgCl2, 10 HEPES, 4 Na2ATP, and 0.1 GTP, adjusted to pH 7.2 with KOH. All chemicals used to make solutions were obtained from Sigma-Aldrich (Mississauga, ON, Canada). […] (Vancouver, BC, Canada) and prepared as a stock solution (50 mM) in H2O. […] DMSO concentrations for either drug never exceeded 0.1% v/v in the final experimental solutions. Coverslips with adherent cells plated on the surface were placed in a superfusion chamber (volume 300 μl) containing the control bath solution at 22° C. Whole-cell current recording and analysis were carried out using an Axopatch 200B amplifier and pClamp10 software (Axon Instruments, CA, USA). Patch electrodes were pulled from thin-walled borosilicate glass (World Precision Instruments, FL, USA) on a horizontal micropipette puller (Sutter Instruments, CA, USA). […] Analogue capacity compensation and 80% series resistance compensation were used during whole cell measurements. Membrane potentials were not corrected for junction potentials that arise between the pipette and bath solution. […] Data were sampled at 10-20 kHz and filtered at 5 to 10 kHz. […] Data are represented as mean±SE unless otherwise specified. For significance of differences, * represents p<0.05, ** p<0.01; statistical analysis was conducted using Student's t-test (unpaired). Clampfit software (Axon Instruments, CA, USA) was used to analyze current traces. Data from each test pulse (currents in the presence of drug) were normalized to control test pulse currents obtained before drug exposure. […] IC50 is the concentration producing half-maximal inhibition; and n is the Hill coefficient.
# [2] = molecular target: T2, Kv1.5 I508F mutant channel (Homo sapiens, UniProt P22460, I508F); assay: as above; assay type: cell-based
# T2 construct: subcloned as a fragment back into full-length Kv1.5; expressed in transfected cells; host or cells: HEK293, transient transfection
# T2 sequence (P22460 whole entry I508F, the tested form may be a part): as the sequence (P22460 whole entry I502L, the tested form may be a part) above, with L502I, I508F counted along it
# Procedure: as §1
# [3] = molecular target: T3, Kv1.5 I502F mutant channel (Homo sapiens, UniProt P22460, I502F); assay: as above; assay type: cell-based
# T3 construct: subcloned as a fragment back into full-length Kv1.5; expressed in transfected cells; host or cells: HEK293, transient transfection
# T3 sequence (P22460 whole entry I502F, the tested form may be a part): as the sequence (P22460 whole entry I502L, the tested form may be a part) above, with L502F counted along it
# Procedure: as §1
# [4] = molecular target: T4, Kv1.5 I508A mutant channel (Homo sapiens, UniProt P22460, I508A); assay: as above; assay type: cell-based; settings: for Fold change: IC50 of I508A relative to WT, vernakalant potency reduced, flecainide potency increased
# T4 construct: subcloned as a fragment back into full-length Kv1.5; expressed in transfected cells; host or cells: HEK293, transient transfection
# T4 sequence (P22460 whole entry I508A, the tested form may be a part): as the sequence (P22460 whole entry I502L, the tested form may be a part) above, with L502I, I508A counted along it
# Procedure: as §1
# [5] = molecular target: T5, Kv1.5 V505F mutant channel (Homo sapiens, UniProt P22460, V505F); assay: as above; assay type: cell-based
# T5 construct: subcloned as a fragment back into full-length Kv1.5; expressed in transfected cells; host or cells: HEK293, transient transfection
# T5 sequence (P22460 whole entry V505F, the tested form may be a part): as the sequence (P22460 whole entry I502L, the tested form may be a part) above, with L502I, V505F counted along it
# Procedure: as §1
# [6] = molecular target: T6, Kv1.5 I502A mutant channel (Homo sapiens, UniProt P22460, I502A); assay: as above; assay type: cell-based; settings: for Fold change: IC50 of I502A relative to WT, decrease in potency
# T6 construct: subcloned as a fragment back into full-length Kv1.5; expressed in transfected cells; host or cells: HEK293, transient transfection
# T6 sequence (P22460 whole entry I502A, the tested form may be a part): as the sequence (P22460 whole entry I502L, the tested form may be a part) above, with L502A counted along it
# Procedure: as §1
# [7] = molecular target: T7, Kv1.5 V505A mutant channel (Homo sapiens, UniProt P22460, V505A); assay: as above; assay type: cell-based; settings: for Fold change: IC50 of V505A relative to WT, vernakalant potency reduced, flecainide potency increased
# T7 construct: subcloned as a fragment back into full-length Kv1.5; expressed in transfected cells; host or cells: HEK293, transient transfection
# T7 sequence (P22460 whole entry V505A, the tested form may be a part): as the sequence (P22460 whole entry I502L, the tested form may be a part) above, with L502I, V505A counted along it
# Procedure: as §1
# [8] = molecular target: T8, Kv1.5 T479A mutant channel (Homo sapiens, UniProt P22460, T479A); assay: as above; assay type: cell-based; settings: for Fold change: IC50 of T479A relative to WT, potency increased
# T8 construct: subcloned as a fragment back into full-length Kv1.5; expressed in transfected cells; host or cells: HEK293, transient transfection
# T8 sequence (P22460 whole entry T479A, the tested form may be a part): as the sequence (P22460 whole entry I502L, the tested form may be a part) above, with T479A, L502I counted along it
# Procedure: as §1
# atrial fibrillation = settings: intravenous; within 90 min of infusion; phase II and III trials; cited from earlier work
# [9] = molecular target: T9, Kv1.5 I508L mutant channel (Homo sapiens, UniProt P22460, I508L); assay: Whole-cell patch-clamp block of mutant Kv1.5 current in HEK293 cells; assay type: cell-based
# T9 construct: subcloned as a fragment back into full-length Kv1.5; expressed in transfected cells; host or cells: HEK293, transient transfection
# T9 sequence (P22460 whole entry I508L, the tested form may be a part): as the sequence (P22460 whole entry I502L, the tested form may be a part) above, with L502I, I508L counted along it
# Procedure: as §1
# [10] = molecular target: T10, Kv1.5 T480A mutant channel (Homo sapiens, UniProt P22460, T480A); assay: as above; assay type: cell-based
# T10 construct: subcloned as a fragment back into full-length Kv1.5; expressed in transfected cells; host or cells: HEK293, transient transfection
# T10 sequence (P22460 whole entry T480A, the tested form may be a part): as the sequence (P22460 whole entry I502L, the tested form may be a part) above, with T480A, L502I counted along it
# Procedure: as §1
# [11] = molecular target: T11, Kv1.5 T480S mutant channel (Homo sapiens, UniProt P22460, T480S); assay: as above; assay type: cell-based
# T11 construct: subcloned as a fragment back into full-length Kv1.5; expressed in transfected cells; host or cells: HEK293, transient transfection
# T11 sequence (P22460 whole entry T480S, the tested form may be a part): as the sequence (P22460 whole entry I502L, the tested form may be a part) above, with T480S, L502I counted along it
# Procedure: as §1
# [12] = molecular target: T12, Kv1.5 A501V mutant channel (Homo sapiens, UniProt P22460, A501V); assay: as above; assay type: cell-based
# T12 construct: subcloned as a fragment back into full-length Kv1.5; expressed in transfected cells; host or cells: HEK293, transient transfection
# T12 sequence (P22460 whole entry A501V, the tested form may be a part): as the sequence (P22460 whole entry I502L, the tested form may be a part) above, with A501V, L502I counted along it
# Procedure: as §1
# [13] = molecular target: T13, Kv1.5 I508Y mutant channel (Homo sapiens, UniProt P22460, I508Y); assay: as above; assay type: cell-based
# T13 construct: subcloned as a fragment back into full-length Kv1.5; expressed in transfected cells; host or cells: HEK293, transient transfection
# T13 sequence (P22460 whole entry I508Y, the tested form may be a part): as the sequence (P22460 whole entry I502L, the tested form may be a part) above, with L502I, I508Y counted along it
# Procedure: as §1
# [14] = molecular target: T14, Kv1.5 T479S mutant channel (Homo sapiens, UniProt P22460, T479S); assay: as above; assay type: cell-based
# T14 construct: subcloned as a fragment back into full-length Kv1.5; expressed in transfected cells; host or cells: HEK293, transient transfection
# T14 sequence (P22460 whole entry T479S, the tested form may be a part): as the sequence (P22460 whole entry I502L, the tested form may be a part) above, with T479S, L502I counted along it
# Procedure: as §1
# [15] = molecular target: T15, Kv1.5 P532L mutant channel (Homo sapiens, UniProt P22460, P532L); assay: as above; assay type: cell-based
# T15 construct: subcloned as a fragment back into full-length Kv1.5; expressed in transfected cells; host or cells: HEK293, transient transfection
# T15 sequence (P22460 whole entry P532L, the tested form may be a part): as the sequence (P22460 whole entry I502L, the tested form may be a part) above, with L502I, P532L counted along it
# Procedure: as §1
# [16] = molecular target: T16, Kv1.5 C500A mutant channel (Homo sapiens, UniProt P22460, C500A); assay: as above; assay type: cell-based
# T16 construct: subcloned as a fragment back into full-length Kv1.5; expressed in transfected cells; host or cells: HEK293, transient transfection
# T16 sequence (P22460 whole entry C500A, the tested form may be a part): as the sequence (P22460 whole entry I502L, the tested form may be a part) above, with C500A, L502I counted along it
# Procedure: as §1
# IKs (KvLQT1) = IKs (KvLQT1) (Homo sapiens, UniProt P51787); assay: Sensitivity of IKs channel to vernakalant (unpublished data)
# IKs (KvLQT1), sequence (P51787 whole entry): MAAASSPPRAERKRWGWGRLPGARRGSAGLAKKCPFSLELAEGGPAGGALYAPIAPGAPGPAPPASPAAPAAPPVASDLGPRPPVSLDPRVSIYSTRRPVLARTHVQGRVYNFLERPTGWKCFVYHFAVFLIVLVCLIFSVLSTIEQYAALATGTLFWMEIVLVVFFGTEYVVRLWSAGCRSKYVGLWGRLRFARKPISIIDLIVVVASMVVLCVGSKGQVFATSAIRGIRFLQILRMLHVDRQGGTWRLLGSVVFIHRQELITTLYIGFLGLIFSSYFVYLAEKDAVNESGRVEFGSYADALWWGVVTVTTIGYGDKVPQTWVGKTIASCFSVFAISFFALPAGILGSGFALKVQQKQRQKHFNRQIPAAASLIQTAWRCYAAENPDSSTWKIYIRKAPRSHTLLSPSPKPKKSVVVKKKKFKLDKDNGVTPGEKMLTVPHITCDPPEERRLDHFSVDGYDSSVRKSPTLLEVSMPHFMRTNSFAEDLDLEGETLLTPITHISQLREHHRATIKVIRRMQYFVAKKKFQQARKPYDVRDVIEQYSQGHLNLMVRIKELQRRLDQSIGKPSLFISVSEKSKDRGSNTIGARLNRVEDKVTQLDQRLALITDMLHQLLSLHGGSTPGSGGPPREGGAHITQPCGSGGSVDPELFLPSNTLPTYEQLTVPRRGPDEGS
structure (smiles),measurement,setting,value
O=C(NCC1CCCCN1)c1cc(OCC(F)(F)F)ccc1OCC(F)(F)F (stereo not drawn) [Flecainide],Fold change,"[1]; IC50 of I502L relative to WT, direction differs by drug",3.55
same,IC50,[1]; Kv1.5 I502L,10.8 ± 1.09 µM
same,Fold change,"[2]; IC50 of I508F relative to WT, direction differs by drug",1.96
same,IC50,[2]; Kv1.5 I508F,74.7 ± 5.37 µM
same,Fold change,[3]; IC50 of I502F relative to WT,4.13
same,IC50,[3]; Kv1.5 I502F,164 ± 31.4 µM
same,Fold change,[4],5.15
same,Fold change,[4]; listed as flecamide,5.2
same,IC50,[4]; Kv1.5 I508A,7.39 ± 0.92 µM
same,Fold change,"[5]; IC50 of V505F relative to WT, direction differs by drug",8.93
same,IC50,[5]; Kv1.5 V505F,4.3 µM and 4.27 µM
same,Fold change,[6],2.43
same,Fold change,[6]; listed as flecamide,2.4
same,IC50,[6]; Kv1.5 I502A,92 µM
same,Fold change,[7],2.92
same,Fold change,[7]; listed as flecamide,3
same,IC50,[7]; Kv1.5 V505A,13.1 ± 3.58 µM
same,Fold change,[8],200
same,Fold change,[8]; listed as flecamide,238
same,IC50,[8]; Kv1.5 T479A,190 ± 40 nM
"COc1ccc(CCO[C@@H]2CCCC[C@H]2N2CC[C@@H](O)C2)cc1OC [Vernakalant, 3-Pyrrolidinol, 1-[(1R,2R)-2-[2-(3,4-dimethoxyphenyl)ethoxy]cyclohexyl]-,hydrochloride, (3R)]",overall rate of conversion of AF to sinus rhythm,atrial fibrillation,~52%
same,Hill coefficient,[1]; Kv1.5 I502L,0.96
same,Fractional Block ± SEM,"[1]; Kv1.5 I502L, 10 μM vernakalant",0.33 ± 0.07
same,Hill coefficient,[2]; Kv1.5 I508F,1.23
same,Fractional Block ± SEM,"[2]; Kv1.5 I508F, 10 μM vernakalant",0.94 ± 0.02
same,Hill coefficient,[3]; Kv1.5 I502F,0.84
same,Fractional Block ± SEM,"[3]; Kv1.5 I502F, 10 μM vernakalant",0.10 ± 0.01
same,Hill coefficient,[9],1.00
same,Fractional Block ± SEM,[9]; 10 μM vernakalant,0.38 ± 0.05
same,Hill coefficient,[10],0.88
same,Fractional Block ± SEM,[10]; 10 μM vernakalant,0.23 ± 0.04
same,Hill coefficient,[11],0.64
same,Fractional Block ± SEM,[11]; 10 μM vernakalant,0.25 ± 0.07
same,Hill coefficient,[12],0.85
same,Fractional Block ± SEM,[12]; 10 μM vernakalant,0.69 ± 0.04
same,Hill coefficient,[4]; Kv1.5 I508A,0.87
same,Fractional Block ± SEM,"[4]; Kv1.5 I508A, 10 μM vernakalant",0.21 ± 0.03
same,Hill coefficient,[13],1.46
same,Fractional Block ± SEM,[13]; 10 μM vernakalant,0.21 ± 0.03
same,Hill coefficient,[5]; Kv1.5 V505F,0.96
same,Fractional Block ± SEM,"[5]; Kv1.5 V505F, 10 μM vernakalant",0.27 ± 0.05
same,Hill coefficient,[14],0.95
same,Fractional Block ± SEM,[14]; 10 μM vernakalant,0.23 ± 0.04
same,Hill coefficient,[15],0.96
same,Fractional Block ± SEM,[15]; 10 μM vernakalant,0.26 ± 0.03
same,Hill coefficient,[6]; Kv1.5 I502A,0.65
same,Fractional Block ± SEM,"[6]; Kv1.5 I502A, 10 μM vernakalant",0.07 ± 0.03
same,Hill coefficient,[16],0.95
same,Fractional Block ± SEM,[16]; 10 μM vernakalant,0.21 ± 0.04
same,Hill coefficient,[7]; Kv1.5 V505A,0.95
same,Fractional Block ± SEM,"[7]; Kv1.5 V505A, 10 μM vernakalant",0.21 ± 0.04
same,Hill coefficient,[8]; Kv1.5 T479A,0.6
same,Fractional Block ± SEM,"[8]; Kv1.5 T479A, 10 μM vernakalant",0.77 ± 0.05
same,sensitivity of IKs channel to drug,IKs (KvLQT1),not sensitive
